Experimental data reported in patent US7019109B2, “SSTR1-selective analogs” (The Salk Institute for Bilogical Studies, priority 2001, dated 2006).
Where two headings read alike, the source gives them in different places. One block for each compound: values may come before it. *1 amine or outer side, *2 acyl side, *3 side chain or, on linkers, in order; H or OH if unused. Where a SMILES comes first, the peptide text is derived from it. Bridges are numbered along the chain shown (N, C = ends). [ ]: non-standard residue; d: D form. NMePhe(4-CH2NHiPr) = CN[C@@H](Cc1ccc(CNC(C)C)cc1)C(=O)O; Phe(4-CH2NHiPr) = CC(C)NCc1ccc(C[C@H](N)C(=O)O)cc1; Tyr(3-I) = N[C@@H](Cc1ccc(O)c(I)c1)C(=O)O; X1 = NC(=O)N[C@@H](CS[*:2])C(=O)[*:1]; X2 = NC(=O)N[C@H](CS[*:2])C(=O)[*:1]

How the values were obtained:
Format in all cases: binding
human SSTR2 = target: T1, human SSTR2 (Homo sapiens, UniProt P30874); test: Displacement of 125I-[Leu8,D-Trp22,Tyr25]-SRIF-28 from cloned SSTR2 (receptor autoradiography); conditions: for IC50: read-out: IC50 (nM) mSSTR2
T1 construct: expressed in transfected cells; host or cells: CHO-K1 cells and CCL39 cells
Experimental: (§1) Generally, recombinant cells expressing the receptor are washed and homogenized to prepare a crude protein homogenate that is frozen, embedded and then cut in 10–20 μm thin sections, as known in this art. Candidate substances, such as potential SRIF agonists and antagonists, are incubated with the tissue sections, and the interaction between the candidate substance and the receptor polypeptide is monitored.
(§2) Receptor binding assays are performed on cloned SRIF receptors as generally set forth in Reubi, J. C. et al., J. Clin. Endocrinol. […] Med. 2000, 27, 273–282.
(§3) In vitro Bioassay: The various somatostatin analogs are tested in vitro for their ability to bind to isolated cloned receptors expressed on CHO-K1 cells and CCL39 cells. CHO-K1 cells are grown in Ham's F-12 medium, and CCL39 cells are grown in Dulbecco's modified Eagle's medium/Ham's F-12(1:1) mix, supplemented with 10% fetal bovine serum, 100 U/ml penicillin and 100 μg/ml streptomycin, in humidified air containing 5% CO2 at 37° C.
(§4) Cells are washed and prepared to produce homogenates as described in detail in Reubi, J. C. et al, Eur. J. Nucl. Med. 2000, 27, 273–282.
(§5) Receptor autoradiography is performed on 20 μm thick cryostat sections of the membrane pellets, mounted on microscope slides, and then stored at −20° C. […] […] […] IC50 values are calculated after quantification of the data using a computer-assisted image processing system as known in this art.

human SSTR4 = target: T2, human SSTR4 (Homo sapiens, UniProt P31391); test: Displacement of 125I-[Leu8,D-Trp22,Tyr25]-SRIF-28 from cloned SSTR4 (receptor autoradiography); conditions: for IC50: read-out: IC50 (nM) mSSTR4
T2 construct: expressed in transfected cells; host or cells: CHO-K1 cells and CCL39 cells
Experimental: as §1, §2, §3, §4
(§6) Receptor autoradiography is performed on 20 μm thick cryostat sections of the membrane pellets, mounted on microscope slides, and then stored at −20° C. […] Increasing concentrations of the unlabeled peptide are used ranging from 0.1–1000 nM. […] IC50 values are calculated after quantification of the data using a computer-assisted image processing system as known in this art.

human SSTR1 = target: T3, human SSTR1 (Homo sapiens, UniProt P30872); test: Displacement of 125I-[Leu8,D-Trp22,Tyr25]-SRIF-28 from cloned SSTR1 (receptor autoradiography); conditions: for IC50: inhibition of radioligand binding of 125I-[Leu8,D-Trp22,Tyr24]SRIF-28, cloned receptor, table, read-out: IC50 (nM) mSSTR1; for binding strength and selectivity for SSTR1, in words: Peptide No. 27 and 2A after iodination
T3 construct: expressed in transfected cells; host or cells: CHO-K1 cells and CCL39 cells
Experimental: as §1, §2, §3, §4, §6

human SSTR3 = target: T4, human SSTR3 (Homo sapiens, UniProt P32745); test: Displacement of 125I-[Leu8,D-Trp22,Tyr25]-SRIF-28 from cloned SSTR3 (receptor autoradiography); conditions: for IC50: read-out: IC50 (nM) mSSTR3
T4 construct: expressed in transfected cells; host or cells: CHO-K1 cells and CCL39 cells
Experimental: as §1, §2, §3, §4, §6

human SSTR5 = target: T5, human SSTR5 (Homo sapiens, UniProt P35346); test: Displacement of 125I-[Leu8,D-Trp22,Tyr25]-SRIF-28 from cloned SSTR5 (receptor autoradiography); conditions: read-out: IC50 (nM) mSSTR5
T5 construct: expressed in transfected cells; host or cells: CHO-K1 cells and CCL39 cells
Experimental: as §1, §2, §3, §4, §5

T2 sequence (P31391 whole entry): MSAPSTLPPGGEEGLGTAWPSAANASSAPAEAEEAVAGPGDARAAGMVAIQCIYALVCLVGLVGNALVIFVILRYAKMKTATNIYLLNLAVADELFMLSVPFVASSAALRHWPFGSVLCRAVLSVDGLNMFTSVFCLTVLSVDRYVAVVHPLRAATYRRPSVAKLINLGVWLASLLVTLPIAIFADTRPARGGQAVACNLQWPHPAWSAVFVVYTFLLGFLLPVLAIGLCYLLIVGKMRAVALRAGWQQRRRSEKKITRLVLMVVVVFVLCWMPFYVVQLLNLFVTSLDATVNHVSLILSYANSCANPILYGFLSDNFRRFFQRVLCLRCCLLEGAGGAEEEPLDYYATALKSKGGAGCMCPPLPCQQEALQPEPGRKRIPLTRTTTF
T1 sequence (P30874 whole entry): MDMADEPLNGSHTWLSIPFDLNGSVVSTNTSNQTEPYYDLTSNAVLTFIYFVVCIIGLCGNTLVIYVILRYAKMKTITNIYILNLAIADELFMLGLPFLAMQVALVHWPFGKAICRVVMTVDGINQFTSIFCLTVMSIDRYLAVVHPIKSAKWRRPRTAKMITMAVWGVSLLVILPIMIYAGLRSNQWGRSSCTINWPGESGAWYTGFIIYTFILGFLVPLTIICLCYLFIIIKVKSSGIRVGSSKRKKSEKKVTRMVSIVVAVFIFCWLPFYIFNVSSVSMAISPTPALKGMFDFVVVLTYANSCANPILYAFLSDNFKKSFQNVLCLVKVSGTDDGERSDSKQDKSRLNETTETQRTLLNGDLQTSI
T3 sequence (P30872 whole entry): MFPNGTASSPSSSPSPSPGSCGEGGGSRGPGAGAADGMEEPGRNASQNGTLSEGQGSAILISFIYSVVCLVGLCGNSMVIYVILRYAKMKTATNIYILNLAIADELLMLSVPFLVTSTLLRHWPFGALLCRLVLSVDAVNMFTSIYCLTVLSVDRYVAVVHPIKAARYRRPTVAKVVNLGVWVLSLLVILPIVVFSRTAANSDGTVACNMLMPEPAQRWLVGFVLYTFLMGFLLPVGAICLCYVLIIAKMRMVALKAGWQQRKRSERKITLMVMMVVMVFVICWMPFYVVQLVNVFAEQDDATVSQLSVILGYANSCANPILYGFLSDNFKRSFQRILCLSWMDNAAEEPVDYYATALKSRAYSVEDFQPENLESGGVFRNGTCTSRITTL
T4 sequence (P32745 whole entry): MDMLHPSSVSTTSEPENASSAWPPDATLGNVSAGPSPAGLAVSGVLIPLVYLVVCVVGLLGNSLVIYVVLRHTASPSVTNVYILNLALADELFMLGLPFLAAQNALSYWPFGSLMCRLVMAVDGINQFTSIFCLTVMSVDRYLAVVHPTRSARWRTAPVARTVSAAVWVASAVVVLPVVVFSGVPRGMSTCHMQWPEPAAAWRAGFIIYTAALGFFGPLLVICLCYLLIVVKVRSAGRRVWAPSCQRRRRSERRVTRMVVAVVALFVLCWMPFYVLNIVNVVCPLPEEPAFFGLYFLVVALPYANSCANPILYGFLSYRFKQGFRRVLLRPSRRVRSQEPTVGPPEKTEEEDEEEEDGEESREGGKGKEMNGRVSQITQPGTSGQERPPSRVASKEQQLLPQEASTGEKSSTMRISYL
T5 sequence (P35346 whole entry): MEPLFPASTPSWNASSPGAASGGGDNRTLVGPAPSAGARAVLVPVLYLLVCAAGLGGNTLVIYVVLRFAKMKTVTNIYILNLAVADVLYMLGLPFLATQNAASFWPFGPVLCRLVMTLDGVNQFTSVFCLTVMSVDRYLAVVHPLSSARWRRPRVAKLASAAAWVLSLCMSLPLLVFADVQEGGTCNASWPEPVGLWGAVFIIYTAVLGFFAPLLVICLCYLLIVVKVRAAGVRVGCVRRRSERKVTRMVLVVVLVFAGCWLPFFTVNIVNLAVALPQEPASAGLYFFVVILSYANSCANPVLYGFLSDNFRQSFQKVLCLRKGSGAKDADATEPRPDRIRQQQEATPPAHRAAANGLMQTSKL

Compound: CC(C)NCc1ccc(C[C@@H]2NC(=O)[C@@H](Cc3c[nH]c4ccccc34)NC(=O)[C@H](Cc3ccccc3)NC(=O)[C@H](Cc3ccccc3)NC(=O)[C@H](CCCCN)NC(=O)[C@@H](NC(N)=O)CSSC[C@@H](C(=O)O)NC(=O)[C@H](CO)NC(=O)[C@H]([C@@H](C)O)NC(=O)[C@H](Cc3ccc(O)c(I)c3)NC(=O)[C@H]([C@@H](C)O)NC2=O)cc1 [Peptide No. 12B] (KFF[dW][Phe(4-CH2NHiPr)]T[Tyr(3-I)]TSC-OH; linker N-10 via X1)
IC50 (human SSTR2): > 10000 nM

Compound: CC(C)NCc1ccc(C[C@@H]2NC(=O)[C@@H](Cc3c[nH]c4ccccc34)NC(=O)[C@H](Cc3ccccc3)NC(=O)[C@H](Cc3ccccc3)NC(=O)[C@H](CCCCN)NC(=O)[C@H](NC(N)=O)CSSC[C@@H](C(=O)O)NC(=O)[C@H](CO)NC(=O)[C@H]([C@@H](C)O)NC(=O)[C@H](Cc3ccc(O)cc3)NC(=O)[C@H]([C@@H](C)O)NC2=O)cc1 [Peptide No. 12C, (cyclo)CbmD-Cys-Lys-Phe-Phe-D-Trp-IAmp-Thr-Tyr-Thr-Ser-Cys-OH] (KFF[dW][Phe(4-CH2NHiPr)]TYTSC-OH; linker N-10 via X2)
IC50 (human SSTR4): > 10000 nM | IC50 (human SSTR1): 17.4 nM | IC50 (human SSTR3): > 1000 nM | IC50 (human SSTR5): > 1000 nM | IC50 (human SSTR2): > 10000 nM

Compound: (cyclo) (DOTA)Cys-Lys-Phe-Phe-D-Trp-N^αMeIAmp-Thr-Tyr-Thr-Ser-Cys-OH [Peptide No. 25]
binding strength and selectivity for SSTR1, in words (human SSTR1): continue to bind strongly and selectively

Compound: (cyclo) (DPTA)Cys-Lys-Phe-Phe-D-Trp-N^αMeIAmp-Thr-Tyr-Thr-Ser-Cys-OH [Peptide No. 26]
binding strength and selectivity for SSTR1, in words (human SSTR1): continue to bind strongly and selectively

Continued, values first:

binding to SSTR4, in words (human SSTR4; Peptide No. 27 iodinated): No specific binding | IC50 (human SSTR4; inhibition of radioligand binding of 125I-[Leu8,D-Trp22,Tyr24]SRIF-28, cloned receptor, table): 300 nM | IC50 (human SSTR1): 25 nM | binding to SSTR3, in words (human SSTR3; Peptide No. 27 iodinated): No specific binding | IC50 (human SSTR3): > 1000 nM | binding to SSTR2, in words (human SSTR2; Peptide No. 27 iodinated): No specific binding | IC50 (human SSTR2): > 10000 nM
Compound: CC(C)NCc1ccc(C[C@H]2C(=O)N[C@@H]([C@@H](C)O)C(=O)N[C@@H](Cc3ccccc3)C(=O)N[C@@H]([C@@H](C)O)C(=O)N[C@@H](CO)C(=O)N[C@H](C(=O)O)CSSC[C@H](NC(=O)[C@@H](N)Cc3ccc(O)cc3)C(=O)N[C@@H](CCCCN)C(=O)N[C@@H](Cc3ccccc3)C(=O)N[C@@H](Cc3ccccc3)C(=O)N[C@H](Cc3c[nH]c4ccccc34)C(=O)N2C)cc1 [Peptide No. 27, (cyclo)H-Tyr-Cys-Lys-Phe-Phe-D-Trp-N^αMeIAmp-Thr-Phe-Thr-Ser-Cys-OH] (H-YCKFF[dW][NMePhe(4-CH2NHiPr)]TFTSC-OH; disulfide 2-12)

binding strength and selectivity for SSTR1, in words (human SSTR1): bind strongly and selectively
Compound: (cyclo 3-14)MeCbm-Cys-Lys-Phe-Phe-D-Trp-N^αMeIAmp-Thr-Tyr-Thr-Ser-Cys-OH [Peptide No. 17]

binding strength and selectivity for SSTR1, in words (human SSTR1): bind strongly and selectively
Compound: (cyclo)Biucys-Lys-Phe-Phe-D-Trp-N^αMeIAmp-Thr-Tyr-Thr-Ser-Cys-OH [Peptide No. 18]
